Measured values from ChEMBL document CHEMBL2203066 (J Med Chem, 2012).

Target: Neuraminidase (Influenza A virus, UniProt Q6Q793)

Compound	IC50
CCC(CC)O[C@@H]1C=C(P(=O)(O)O)C[C@H](NC(=N)N)[C@H]1NC(C)=O	0.04 nM
CCOP(=O)(O)C1=C[C@@H](OC(CC)CC)[C@H](NC(C)=O)[C@@H](N)C1 [TAMIPHOSPHOR MONOETHYL ESTER]	2.2 nM
